Source: patent US12398147B2, “Macrocyclic spiropyrrolidine derived antiviral agents” (Enanta Pharmaceuticals, Inc., priority 2021, dated 2025)
Like-named read-outs stand apart in the source and are kept apart here.

Key:
SARS-CoV-2 3CL-protease = SARS-CoV-2 3CL-protease (Severe acute respiratory syndrome coronavirus 2 (2019-nCoV) (SARS-CoV-2), UniProt P0DTD1); test: biochemical
[1] = tested on: 229E human corona virus (hCoV); test: 229E Cellular Assay (MRC5), live virus assay, ATPlite; format: cell-based, hCoV-229E; conditions: read-out: EC50 (229E)
in vitro = conditions: African green monkey
SARS-CoV-2 USA-WA1/2020 = test: SARS-CoV-2 Cellular Assay (Vero 76), inhibition of CPE, neutral red; format: cell-based; conditions: Severe acute respiratory syndrome coronavirus 2, 144 h; Vero 76 cells infected with SARS-CoV-2 USA-WA1/2020, day 6, neutral red CPE
[2] = recombinant SARS-CoV-2 3CL-protease 10 nM, 30 min preincubation, read-out: FRET IC50
[3] = Human coronavirus 229E, MRC5, 144 h, MRC-5 cells, hCoV-229E MOI 0.05, 6 days, ATPlite

Row | Structure (SMILES) | IC50 (SARS-CoV-2 3CL-protease; [2]) [nM] | EC50 [1, 3] [nM] | further results
1 | CC(C)C[C@H]1C(=O)N2C[C@]3(C[C@H]2C#N)C(=O)Nc2ccc(cc23)C=CCCCN1C(=O)OCc1ccccc1 [Example 1] | < 100 |  | EC50 ([1]; MRC-5 cells, hCoV-229E MOI 0.05, 6 days, ATPlite): 100 to 1000 nM
2 | CC(C)C[C@H]1C(=O)N2C[C@]3(C[C@H]2C#N)C(=O)Nc2ccc(cc23)CCCCCN1C(=O)OCc1ccccc1 [Example 2] | < 100 | 100 to 1000 | 
3 | CC(C)C[C@H]1C(=O)N2C[C@]3(C[C@H]2C#N)C(=O)Nc2ccc(cc23)/C=C\CCN1C(=O)OCc1ccccc1 [Example 3] | < 100 |  | EC50 ([1]; Human coronavirus 229E, MRC5, 144 h): 100 to 1000 nM
4 | CC(C)C[C@H]1C(=O)N2C[C@]3(C[C@H]2C#N)C(=O)Nc2ccc(cc23)CCCCCN1C(=O)c1cc2c(F)cc(F)cc2[nH]1 [Example 4] | < 100 | < 100 | CC50 (in vitro): 1 to 50 µM; EC50 (SARS-CoV-2 USA-WA1/2020): < 1000 nM
5 | CC(C)C[C@H]1C(=O)N2C[C@]3(C[C@H]2C#N)C(=O)Nc2ccc(cc23)CCCCCN1C(=O)c1cc2c(F)cc(F)c(F)c2[nH]1 [Example 5] | < 100 | < 100 | CC50 (in vitro): 1 to 50 µM; EC50 (SARS-CoV-2 USA-WA1/2020): < 1000 nM
6 | CC(C)C[C@H]1C(=O)N2C[C@]3(C[C@H]2C#N)C(=O)Nc2ccc(cc23)CCCCCN1C(=O)c1cc2ccc(C(F)(F)F)cc2[nH]1 [Example 6] | 100 to 1000 | < 100 | 
7 | CC(C)C[C@H]1C(=O)N2C[C@]3(C[C@H]2C#N)C(=O)Nc2ccc(cc23)CCCCCN1C(=O)c1cn(-c2ccccc2)nn1 [Example 7] | < 100 | < 100 | CC50 (in vitro): 1 to 50 µM; EC50 (SARS-CoV-2 USA-WA1/2020): < 1000 nM
8 | CC(C)C[C@H]1C(=O)N2C[C@]3(C[C@H]2C#N)C(=O)Nc2ccc(cc23)CCCCCCN1C(=O)c1cc2c(F)cc(F)cc2[nH]1 [Example 8] | 100 to 1000 | 100 to 1000 | 
9 | N#C[C@@H]1C[C@]23CN1C(=O)[C@H](Cc1ccccc1)N(C(=O)c1cc4c(F)cc(F)cc4[nH]1)CCCCCc1ccc(c2c1)NC3=O [Example 9] | < 100 | < 100 | CC50 (in vitro): 1 to 50 µM; EC50 (SARS-CoV-2 USA-WA1/2020): < 1000 nM
10 | N#C[C@@H]1C[C@]23CN1C(=O)[C@H](Cc1ccccc1)N(C(=O)c1cn(-c4ccc(F)cc4)nn1)CCCCCc1ccc(c2c1)NC3=O [Example 10] | < 100 |  | CC50 (in vitro): 1 to 50 µM; EC50 (SARS-CoV-2 USA-WA1/2020): < 1000 nM
11 | CC(C)C[C@H]1C(=O)N2C[C@]3(C[C@H]2C#N)C(=O)Nc2ccc(cc23)CCCCCN1C(=O)c1nnn(-c2ccccc2)n1 [Example 11] | < 100 | 100 to 1000 | 
12 | CC(C)C[C@H]1C(=O)N2C[C@]3(C[C@H]2C#N)C(=O)Nc2ccc(cc23)CCCCCN1C(=O)c1cn(C2CCC2)nn1 [Example 12] | < 100 | < 100 | 
13 | CC(C)C[C@H]1C(=O)N2C[C@]3(C[C@H]2C#N)C(=O)Nc2ccc(cc23)CCCCCN1C(=O)c1nnc(-c2ccccc2)[nH]1 [Example 13] |  | 100 to 1000 | IC50 (SARS-CoV-2 3CL-protease): 100 to 1000 nM
14 | CC(C)C[C@H]1C(=O)N2C[C@]3(C[C@H]2C#N)C(=O)Nc2ccc(cc23)CCCCCN1C(=O)c1cn(C2CC2)nn1 [Example 14] | < 100 | < 100 | CC50 (in vitro): 1 to 50 µM; EC50 (SARS-CoV-2 USA-WA1/2020): < 1000 nM
15 | CCCC[C@H]1C(=O)N2C[C@]3(C[C@H]2C#N)C(=O)Nc2ccc(cc23)CCCCCN1C(=O)c1cc2c(F)cc(F)cc2[nH]1 [Example 15] | < 100 | < 100 | 
16 | CCCC[C@H]1C(=O)N2C[C@]3(C[C@H]2C#N)C(=O)Nc2ccc(cc23)CCCCCN1C(=O)c1cn(-c2cc(F)c(F)cc2F)nn1 [Example 16] | < 100 | < 100 | 
17 | CC(C)C[C@H]1C(=O)N2C[C@]3(C[C@H]2C#N)C(=O)Nc2ccc(cc23)CCCCCN1C(=O)c1cnn(C(C)(C)C)c1 [Example 17] | < 100 | < 100 | 
18 | CC(C)C[C@H]1C(=O)N2C[C@]3(C[C@H]2C#N)C(=O)Nc2ccc(cc23)CCCCCN1C(=O)c1cnn(-c2ccc(C(F)(F)F)cc2)c1 [Example 18] | < 100 | < 100 | 
19 | CCCC[C@H]1C(=O)N2C[C@]3(C[C@H]2C#N)C(=O)Nc2ccc(cc23)CCCCCN1C(=O)c1cc2c(F)cc(F)c(F)c2[nH]1 [Example 19] | < 100 | < 100 | 
20 | CC(C)(C)C[C@H]1C(=O)N2C[C@]3(C[C@H]2C#N)C(=O)Nc2ccc(cc23)CCCCCN1C(=O)c1cc2c(F)cc(F)cc2[nH]1 [Example 20] | < 100 | < 100 | 
21 | CC(C)C[C@H]1C(=O)N2C[C@]3(C[C@H]2C#N)C(=O)Nc2ccc(cc23)CCCCCN1C(=O)c1cnn(-c2ccccc2C(F)(F)F)c1 [Example 21] | < 100 | < 100 | 
22 | CC(C)C[C@H]1C(=O)N2C[C@]3(C[C@H]2C#N)C(=O)Nc2ccc(cc23)CCCCCN1C(=O)c1cnn(-c2ccccc2Cl)c1 [Example 22] | < 100 | < 100 | 
23 | CC(C)C[C@H]1C(=O)N2C[C@]3(C[C@H]2C#N)C(=O)Nc2ccc(cc23)CCCCCN1C(=O)c1cnn(-c2ccc(F)cc2F)c1 [Example 23] | < 100 | < 100 | 
24 | CC(C)C[C@H]1C(=O)N2C[C@]3(C[C@H]2C#N)C(=O)Nc2ccc(cc23)CCCCCN1C(=O)C(=O)NC1(c2ccc(F)cc2F)CC1 [Example 24] | < 100 | < 100 | 
25 | CC(C)C[C@H]1C(=O)N2C[C@]3(C[C@H]2C#N)C(=O)Nc2ccc(cc23)CCCCCN1C(=O)c1cnn(-c2ccc(Cl)cc2Cl)c1 [Example 25] | < 100 |  | 
26 | CC(C)C[C@H]1C(=O)N2C[C@]3(C[C@H]2C#N)C(=O)Nc2ccc(cc23)C(O)CCCCN1C(=O)c1cc2c(F)cc(F)cc2[nH]1 (stereo partly shown) [Example 26] | < 100 | < 100 | 
27 | CC(C)C[C@H]1C(=O)N2C[C@]3(C[C@H]2C#N)C(=O)Nc2ccc(cc23)C(=O)CCCCN1C(=O)c1cc2c(F)cc(F)cc2[nH]1 [Example 27] | < 100 | < 100 | 
28 | CC(C)C[C@H]1C(=O)N2C[C@]3(C[C@H]2C#N)C(=O)Nc2ccc(cc23)OCCCCN1C(=O)c1cc2c(F)cc(F)cc2[nH]1 [Example 28] | < 100 | < 100 | 
29 | CC(C)C[C@H]1C(=O)N2C[C@]3(C[C@H]2C#N)C(=O)Nc2ccc(cc23)OCCCCN1C(=O)C(=O)NC1(c2ccc(F)cc2F)CC1 [Example 29] | < 100 |  | 
